Tests used:
[1] = test system: 32D cl 3 mouse hematopoietic progenitor cell line; test: Irradiation survival curves of 32D cl 3 cells (colony assay); format: cell-based; details: for ñ (shoulder on the survival curve): 0 to 8 Gy
Procedure: Groups of 15 mice received intraperitoneal injection of 10 mg. per kilogram of each indicated GS-nitroxide compound or carrier (Cremphora plus alcohol at 1 to 1 ratio, then diluted 1 to 10 in distilled water). Mice received 10 mg per kilogram intra-peritoneal injection 24 hours prior to total body irradiation. Control mice received radiation alone. […] (P=0.0005) FIG. 6 is a graph showing that GS-nitroxide JP4-039 is an effective hematopoietic cell radiation mitigator when delivered 24 hr after irradiation. Irradiation survival curves were performed on cells from the 32D cl 3 mouse hematopoietic progenitor cell line, incubated in 10 μM JP4-039 for 1 hour before irradiation, or plated in methylcellulose containing 10 μM […] after irradiation. Cells were irradiated from 0 to 8 Gy, plated in 0.8% methylcellulose containing media, and incubated for 7 days at 37° C. Colonies of greater than 50 cells were counted and data analyzed by linear quadratic and single-hit, multi-target models.

[2] = JP4-039 content of sorted esophageal SP and NSP cells (EPR); format: in vivo, mouse; details: 20 esophagi excised 10 minutes after intraesophageal delivery
Procedure: Ten minutes after administration of JP4-039, esophagi were removed, minced, and incubated in a solution of 0.2% Collagenase type II, 0.3% Dispase and 0.025% Trypsin for 45 minutes at 37 degrees Celsius. Cell aggregates were then passed through sequentially smaller needles (to 23-gauge) and filtered with a […] cell strainer into DMEM supplemented with 40% fetal bovine serum. Suspensions were pelleted via centrifugation and resuspended at 10^6 cells/ml in pre-warmed DMEM (2% FBS, 10 mM HEPES). Cells were incubated in 6 μg/ml Hoechst 33342 for 90 minutes to identify SP cells. Verapamil, which inhibits the efflux of Hoechst, was used as a concentration of 50 μM for the purpose of cell gating. Cells were pelleted and resuspended in cold Hank's Balanced Salt Solution (HBSS) (2% FBS, 10 mM HEPES) and incubated with anti-CD45-phycoerythrin (PE)-fluorescein isothiocyanate (FITC) and/or anti-Ter119-PE-Cy7 antibodies at 1:200 dilutions, to discriminate hematopoietic cells. Antibody-treated cells were incubated on ice for 20 minutes, washed in cold HBSS, filtered, pelleted, and resuspended in cold HBSS. […] SP and NSP cells were quantified, sorted into separate collection tubes containing cold HBSS (2% FBS, 10 mM HEPES) and pelleted. […] JP4-039 content in sorted SP and NSP cells was quantified by electron paramagnetic resonance (EPR) analysis using a JEOL-RE1XEPR spectrometer. […]

[3] = JP4-039 uptake in normal tissue and orthotopic tumors after intraesophageal administration (EPR); format: in vivo, mouse
Procedure: Lastly, to determine whether JP4-039 was taken up by other tissue, esophagus, lung orthotopic tumor, liver, and peripheral blood samples were taken 10, 30, and 60 minutes after intraesophageal administration of the compound. Samples were snap-frozen on dry ice and JP4-039 content was quantified by EPR analysis.
To determine if the orally-administered JP4-039 also reached other tissues and orthotopic tumors, esophagus, peripheral blood, bone marrow, liver, and 3LL orthotopic tumors were harvested at 10, 30, and 60 minutes after intraesophageal administration of JP4-039, followed by quantification by EPR. […] JP4-039 levels in peripheral blood and orthotopic tumor peaked at 30 minutes at 51.1 and 276.0 pmol/mg protein, respectively. […] Lower levels of JP4-039 were detected in bone marrow up to 60 minutes after drug swallow compared to levels in liver and tumor tissue.

[4] = test system: Lewis lung carcinoma cells (3LL); test: Irradiation of mice with orthotopic 3LL lung tumors; format: in vivo, mouse
From the text: A separate group of mice received intratracheal administration of 1×10^6 Lewis lung carcinoma cells (3LL) seven days prior to administration of JP4-039, followed immediately by excision of lung tissue to calculate JP4-039 uptake by cancer cells.
This dose of irradiation was chosen to reduce tumor growth but was below the level required for lethal esophagitis. […] Control tumor-bearing mice received no irradiation.

[5] = test system: mice, 29 Gy upper body irradiation plus GFP+ male marrow; test: Survival after 29 Gy upper body irradiation with GFP+ marrow injection on day 5; format: in vivo, mouse; details: given before 29 Gy; GFP+ marrow i.v. day 5; p=0.0315 (MnSOD-PL), p=0.0462 (JP4-039/F15)
From the text: Bone marrow transplantation, esophageal excision and cell sorting. Five days after irradiation, the time shown to optimize marrow cell homing to the irradiated esophagus, mice received intravenous injection of 1.0×10^7 C57BL/6HNsd GFP+ male bone marrow cells prepared as single-cell suspension from donor male mice according to published methods (Niu Y, et al. Irradiated esophageal cells are protected from radiation-induced recombination by MnSOD gene therapy. Rad Res 173: 453-461, 2010 and Niu Y, et al. Intraesophageal MnSOD-plasmid liposome administration enhances engraftment and self-renewal capacity of bone marrow derived progenitors of esophageal squamous epithelium. Gene Therapy 15: 347-356, 2008). At serial time points after marrow transplantation, esophagus specimens were removed, and single cell suspensions prepared according to published methods (Id.). The esophagus cell suspensions were sorted for GFP+ cells. The number of GFP+ cells per 10^6 was calculated as described previously (Id.). (GFP+) cells were placed on slides, and stained for detection of donor cell markers (Id.).
Intraesophageal JP4-039/formulation improves survival through recovery of endogenous esophageal progenitor cells. […] Five groups of 15 mice each received 29 Gy to the upper body. One group received MnSOD-PL 24 hours prior to irradiation.

[6] = Uptake of swallowed JP4-039 in esophageal SP cells incl. GFP+ marrow chimeric mice; format: in vivo, mouse
[7] = intraesophageal, F15 formulation

CC(C)C[C@@H](/C=C/CC(=O)NC1CC(C)(C)N([O])C(C)(C)C1)NC(=O)OC(C)(C)C [JP4-039, TEMPO-4-yl-(S,E)-5-(tert-butoxycarbonylamino)-7-methyloct-3-enamide]
ñ (shoulder on the survival curve) ([1]; 10 μM for 1 hour before irradiation, cells alone 1.29±0.13, p=0.0109): 5.25±0.84
survival of 32D c13 cells ([1]; 10 μM for one hour, 0-8 Gy irradiation, preliminary data): increased survival
ñ (shoulder on the survival curve) ([1]; 10 μM in methylcellulose after irradiation, cells alone 1.29±0.13, p=0.0022): 4.55±0.47
JP4-039 content of sorted SP cell pellet ([2]; 101,00 SP cells): 275.1 fmol
JP4-039 content of sorted NSP cells ([2]; 3,387,00 NSP cells): 221.3 fmol
time of peak level in liver [3, 7]: 10 min
time of peak level in orthotopic tumor [3, 7]: 30 min
time of peak level in peripheral blood [3, 7]: 30 min
peak JP4-039 level in orthotopic tumor ([3]; intraesophageal, F15 formulation, 3LL tumor, at 30 minutes, EPR): 276.0 pmol/mg protein
peak JP4-039 level in liver ([3]; intraesophageal, F15 formulation, at 10 minutes, EPR): 122/2
peak JP4-039 level in peripheral blood ([3]; intraesophageal, F15 formulation, at 30 minutes, EPR): 51.1 pmol/mg protein
JP4-039 level in bone marrow compared to liver and tumor tissue ([3]; up to 60 minutes after drug swallow): Lower levels
protection of orthotopic 3LL cells from irradiation ([4]; 4 μg in 110 μl F15, 10 minutes before 0 or 15 Gy upper-body irradiation): did not protect 3LL cells from irradiation
survival of 3LL tumor-bearing mice compared to F15 alone ([4]; prior to 20 Gy thoracic irradiation, p=0.3693): did not survive significantly differently
survival [5]: improved survival
uptake in GFP+ esophageal (SP) stem cells ([6]; GFP+ marrow chimeric mice): reaches GFP+ esophageal (SP) stem cells
uptake in esophageal SP cells ([6]; preliminary data): reaches SP cells

From patent US20190210969A1, “INTRAESOPHAGEAL ADMINISTRATION OF TARGETED NITROXIDE AGENTS FOR PROTECTION AGAINST IONIZING IRRADIATION-INDUCED ESOPHAGITIS” (University of Pittsburgh - Of the Commonwealth System of …, priority 2010, published 2019)
